Data as given in patent EP3290412A1, “HIV-1 NUCLEOCAPSID INHIBITORS” (Università degli Studi di Siena, priority 2016, dated 2018).
Where two headings read alike, the source gives them in different places.

Key:
Assay type in all cases: cell-based
[1] = tested on: HIV-1 reference strain NL4-3; assay: MonoCycle assay (TZM-bl cells)
Method: MonoCycle assay is a cell based assay allowing the evaluation of antiviral activity of HIV-1 inhibitors targeting the early steps of HIV-1 life cycle such as entry, uncoating of viral particles, reverse transcription and integration. The assay consists in the infection of TZM-bl cells (20,000/well) with the HIV-1 reference strain NL4-3 in presence of serial five-fold dilutions of the investigational inhibitors. After 48 hours, cells were lysed adding 40 µl of Glo Lysis Buffer (Promega) to each well for 5 minutes, then 40 µl of Brighy-Glo Luciferase Reagent (Promega) were added to each well for relative luminescence units (RLU) counting using Glo-Max Multi Detection System (Promega). RLU values from each well were elaborated using the GraphPad v5.0 software to calculate the IC50 of each compound.

HeLa cells = assay: HeLa Proliferation assay (CellTiter Glo); details: 72 hours
In short: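 HeLa cells in phenol red-free DMEM + 10% FBS plated at 2000 cells/well, recovered 4 h, then exposed to compounds for 72 h at 37 °C, 5% CO2. Viability read by CellTiter Glo luminescence.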

[2] = tested on: Peripheral blood mononuclear cells (PBMC); details: human, 7 days
In short: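 Healthy-donor PBMC stimulated 2 days with 5 µg/mL PHA, then seeded at 1x10^5 cells/well in medium with 20 IU/mL IL-2 and exposed to compound for 7 days. Viability measured by MTS (4 h, OD 490 nm). TD50 interpolated from dose versus percent mortality relative to untreated cells.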

[3] = Human immunodeficiency virus 1, NL43, TZM-bl, 48 h, read-out: Mono Cycle IC50 nM
[4] = Human immunodeficiency virus 1, NL43, TZM-bl cells, NL4-3, 48 hours, read-out: Mono Cycle IC50

C[C@H](NC(=O)c1nc(-c2cc(Cl)ccn2)nc(O)c1O)C1CCCCC1 [Compound 78, (S)-2-(4-chloropyridin-2-yl)-N-(1-cyclohexylethyl)-5,6-dihydroxypyrimidine-4-carboxamide]
IC50 [1, 3]: 8740 nM
Proliferation assay HELA TD50 (HeLa cells): 2.3576 µM
Proliferation assay PBMC TD50 [2]: 1900 nM

C[C@@H](NC(=O)c1nc(-c2cc(CCN)ccn2)nc(O)c1O)C1CCCCC1 [Compound 88, (R)-2-(4-(2-aminoethyl)pyridin-2-yl)-N-(1-cyclohexylethyl)-5,6-dihydroxypyrimidine-4-carboxamide]
IC50 [1, 3]: > 50000 nM
Proliferation assay HELA TD50 (HeLa cells): 7.1338 µM
Proliferation assay PBMC TD50 [2]: 3250 nM

C[C@@H](NC(=O)c1nc(-c2cccc(Cl)n2)nc(O)c1O)C1CCCCC1 [Compound 34, (R)-2-(6-chloropyridin-2-yl)-N-(1-cyclohexylethyl)-5,6-dihydroxypyrimidine-4-carboxamide]
IC50 [1, 3]: 14500 nM
Proliferation assay HELA TD50 (HeLa cells): 8.2296 µM
Proliferation assay PBMC TD50 [2]: 5880 nM

CC1CCCCC1NC(=O)c1nc(-c2ccccn2)nc(O)c1O (stereo not drawn) [Compound 59, 5,6-dihydroxy-N-(2-methylcyclohexyl)-2-(pyridin-2-yl)pyrimidine-4-carboxamide]
IC50 [1, 3]: > 50000 nM
Proliferation assay HELA TD50 (HeLa cells): 0.6946 µM
Proliferation assay PBMC TD50 [2]: 2180 nM

C[C@@H](NC(=O)c1nc(-c2cccc(N)n2)nc(O)c1O)C1CCCCC1 [Compound 45, (R)-2-(6-aminopyridin-2-yl)-N-(1-cyclohexylethyl)-5,6-dihydroxypyrimidine-4-carboxamide]
IC50 [1, 3]: > 50000 nM
Proliferation assay HELA TD50 (HeLa cells): 3.2272 µM
Proliferation assay PBMC TD50 [2]: 3360 nM

O=C(NCCC1CCCCC1)c1nc(-c2ccccn2)nc(O)c1O [Compound 6, N-(2-cyclohexylethyl)-5,6-dihydroxy-2-(pyridin-2-yl)pyrimidine-4-carboxamide]
IC50 [1, 3]: 4300 nM
Proliferation assay HELA TD50 (HeLa cells): 4.2362 µM
Proliferation assay PBMC TD50 [2]: 10480 nM

C[C@@H](NC(=O)c1nc(-c2ccc(NC(=O)OC(C)(C)C)cn2)nc(O)c1O)C1CCCCC1 [Compound 61, tert-butyl (R)-(6-(4-((1-cyclohexylethyl)carbamoyl)-5,6-dihydroxypyrimidin-2-yl)pyridin-3-yl)carbamate]
IC50 [1, 3]: 7180 nM
Proliferation assay HELA TD50 (HeLa cells): 2.0358 µM
Proliferation assay PBMC TD50 [2]: 2400 nM

O=C(NC1(C2CCCCC2)CC1)c1nc(-c2ccccn2)nc(O)c1O [Compound 24, N-(1-cyclohexylcyclopropyl)-5,6-dihydroxy-2-(pyridin-2-yl)pyrimidine-4-carboxamide]
IC50 [1, 3]: 3610 nM
Proliferation assay HELA TD50 (HeLa cells): 1.5131 µM
Proliferation assay PBMC TD50 [2]: 2600 nM

C[C@@H](NC(=O)c1nc(-c2ccc(N)cn2)nc(O)c1O)C1CCCCC1 [Compound 20, (R)-2-(5-aminopyridin-2-yl)-N-(1-cyclohexylethyl)-5,6-dihydroxypyrimidine-4-carboxamide]
IC50 [1, 3]: 2110 nM
Proliferation assay HELA TD50 (HeLa cells): 0.6864 µM
Proliferation assay PBMC TD50 [2]: 1650 nM

C[C@@H](NC(=O)c1nc(-c2cc(CCNCc3cccn3C)ccn2)nc(O)c1O)C1CCCCC1 [Compound 91, (R)-N-(1-cyclohexylethyl)-5,6-dihydroxy-2-(4-(2-(((1-methyl-1H-pyrrol-2-yl)methyl)amino)ethyl)pyridin-2-yl)pyrimidine-4-carboxamide]
IC50 [1, 3]: 2150 nM
Proliferation assay HELA TD50 (HeLa cells): 1.1604 µM
Proliferation assay PBMC TD50 [2]: 1090 nM

COc1cc(-c2nc(O)c(O)c(C(=O)N[C@H](C)C3CCCCC3)n2)nc2ccccc12 [Compound 68, N-[(1R)-1-cyclohexylethyl]-2-(4-methoxyquinolin-2-yl)-5,6-bis(oxidanyl)pyrimidine-4-carboxamide]
IC50 [1, 4]: 44300 nM
Proliferation assay HELA TD50 (HeLa cells): 5.7007 µM
Proliferation assay PBMC TD50 [2]: 2660 nM

O=C(NCCCC1CCCCC1)c1nc(-c2ccccn2)nc(O)c1O [Compound 8, N-(3-cyclohexylpropyl)-5,6-dihydroxy-2-(pyridin-2-yl)pyrimidine-4-carboxamide]
IC50 [1, 3]: 4540 nM
Proliferation assay HELA TD50 (HeLa cells): 4.8472 µM
Proliferation assay PBMC TD50 [2]: 2000 nM

CC(=O)Nc1ccc(-c2nc(O)c(O)c(C(=O)N[C@H](C)C3CCCCC3)n2)nc1 [Compound 62, (R)-2-(5-acetamidopyridin-2-yl)-N-(1-cyclohexylethyl)-5,6-dihydroxypyrimidine-4-carboxamide]
IC50 [1, 3]: > 50000 nM
Proliferation assay HELA TD50 (HeLa cells): 4.5519 µM
Proliferation assay PBMC TD50 [2]: 1870 nM

O=C(NC1CCCCC1)c1nc(-c2ccccn2)nc(O)c1O [Compound 4, N-cyclohexyl-5,6-dihydroxy-2-(pyridin-2-yl)pyrimidine-4-carboxamide]
IC50 [1, 3]: > 50000 nM
Proliferation assay HELA TD50 (HeLa cells): 8.1353 µM
Proliferation assay PBMC TD50 [2]: 4800 nM

Cc1cccnc1-c1nc(O)c(O)c(C(=O)NCC2CCCCC2)n1 [Compound 11, N-(cyclohexylmethyl)-5,6-dihydroxy-2-(3-methylpyridin-2-yl)pyrimidine-4-carboxamide]
IC50 [1, 3]: 50000 nM
Proliferation assay HELA TD50 (HeLa cells): 8.2839 µM
Proliferation assay PBMC TD50 [2]: 8700 nM

O=C(OCC1CCCCC1)c1nc(-c2ncccc2Cl)nc(O)c1O [Compound 15, cyclohexylmethyl 2-(3-chloropyridin-2-yl)-5,6-dihydroxypyrimidine-4-carboxylate]
IC50 [1, 4]: > 50000 nM
Proliferation assay HELA TD50 (HeLa cells): >50 µM
Proliferation assay PBMC TD50 [2]: 25000 nM

Cc1ccnc(-c2nc(O)c(O)c(C(=O)N[C@@H](C)C3CCCCC3)n2)c1 [Compound 79, (S)-N-(1-cyclohexylethyl)-5,6-dihydroxy-2-(4-methylpyridin-2-yl)pyrimidine-4-carboxamide]
IC50 [1, 3]: 2350 nM
Proliferation assay HELA TD50 (HeLa cells): 1.7233 µM
Proliferation assay PBMC TD50 [2]: 2300 nM

C[C@@H](NC(=O)c1nc(-c2ncccc2Cl)nc(O)c1O)C1CCCCC1 [Compound 33, (R)-2-(3-chloropyridin-2-yl)-N-(1-cyclohexylethyl)-5,6-dihydroxypyrimidine-4-carboxamide]
IC50 [1, 3]: > 50000 nM
Proliferation assay HELA TD50 (HeLa cells): 6.8148 µM
Proliferation assay PBMC TD50 [2]: 3400 nM

O=C(OCC1CCCCC1)c1nc(-c2ccccn2)nc(O)c1O [Compound 2, cyclohexylmethyl 5,6-dihydroxy-2-(pyridin-2-yl)pyrimidine-4-carboxylate]
IC50 [1, 3]: > 50000 nM
Proliferation assay HELA TD50 (HeLa cells): >50 µM
Proliferation assay PBMC TD50 [2]: 6000 nM

C[C@@H](NC(=O)c1nc(-c2ccc(Cl)cn2)nc(O)c1O)C1CCCCC1 [Compound 49, (R)-2-(5-chloropyridin-2-yl)-N-(1-cyclohexylethyl)-5,6-dihydroxypyrimidine-4-carboxamide]
IC50 [1, 3]: 10900 nM
Proliferation assay HELA TD50 (HeLa cells): 2.0999 µM
Proliferation assay PBMC TD50 [2]: 3400 nM

C[C@@H](NC(=O)c1nc(-c2ccc(C(=O)OCc3ccccc3)cn2)nc(O)c1O)C1CCCCC1 [Compound 21, benzyl (R)-6-(4-((1-cyclohexylethyl)carbamoyl)-5,6-dihydroxypyrimidin-2-yl)nicotinate]
IC50 [1, 3]: > 50000 nM
Proliferation assay HELA TD50 (HeLa cells): 3.9607 µM
Proliferation assay PBMC TD50 [2]: <400 nM

C[C@H](NC(=O)c1nc(-c2ccc(N)cn2)nc(O)c1O)C1CCCCC1 [Compound 81, (S)-2-(5-aminopyridin-2-yl)-N-(1-cyclohexylethyl)-5,6-dihydroxypyrimidine-4-carboxamide]
IC50 [1, 3]: 2290 nM
Proliferation assay HELA TD50 (HeLa cells): 0.5425 µM
Proliferation assay PBMC TD50 [2]: 1400 nM

Cc1cccc(-c2nc(O)c(O)c(C(=O)N[C@H](C)C3CCCCC3)n2)n1 [Compound 18, (R)-N-(1-cyclohexylethyl)-5,6-dihydroxy-2-(6-methylpyridin-2-yl)pyrimidine-4-carboxamide]
IC50 [1, 3]: 37300 nM
Proliferation assay HELA TD50 (HeLa cells): 4.6302 µM
Proliferation assay PBMC TD50 [2]: 2400 nM

CCNS(=O)(=O)c1ccc(-c2nc(O)c(O)c(C(=O)N[C@H](C)C3CCCCC3)n2)nc1 [Compound 89, (R)-N-(1-cyclohexylethyl)-2-(5-(N-ethylsulfamoyl)pyridin-2-yl)-5,6-dihydroxypyrimidine-4-carboxamide]
IC50 [1, 3]: > 50000 nM
Proliferation assay HELA TD50 (HeLa cells): 12.629 µM
Proliferation assay PBMC TD50 [2]: 3290 nM
